Assay results taken from publication PMC9189845, “Structure–Activity Relationships of 8-Hydroxyquinoline-Derived Mannich Bases with Tertiary Amines Targeting Multidrug-Resistant Cancer” (Journal of Medicinal Chemistry, 2022).
Like-named read-outs stand apart in the source and are kept apart here.

Assays:
MES-SA/Dx5 cells = test: PrestoBlue viability assay, MES-SA/Dx5 cells (MDR, P-gp positive); conditions: for pIC50 value MES-SA/Dx5: MES-SA/Dx5 cells, without TQ
MES-SA cells = test: PrestoBlue viability assay, MES-SA cells; conditions: for pIC50 value MES-SA: MES-SA cells, without TQ
[1] = read-out: IC50 / μM MES-SA/Dx5, absence of TQ, 72 h incubation
[2] = read-out: IC50 / μM MES-SA, absence of TQ, 72 h incubation
[3] = selectivity ratio MES-SA vs MES-SA/Dx5, with TQ
[4] = selectivity ratio MES-SA vs MES-SA/Dx5, without TQ
[5] = Homo sapiens, MES-SA/Dx5, 72 h, read-out: IC50 / μM MES-SA/Dx5, absence of TQ, 72 h incubation
[6] = Homo sapiens, MES-SA/Dx5, read-out: pIC50 value MES-SA/Dx5, MES-SA/Dx5 cells, without TQ (converted)
[7] = Homo sapiens, MES-SA, 72 h, read-out: IC50 / μM MES-SA, absence of TQ, 72 h incubation
[8] = Homo sapiens, MES-SA, read-out: pIC50 value MES-SA, MES-SA cells, without TQ (converted)

Row | Molecule | IC50 (MES-SA/Dx5 cells; [1]) | IC50 (MES-SA cells; [2]) | SR (MES-SA/Dx5 cells; [4]) | IC50 (MES-SA/Dx5 cells; [5]) | IC50 (MES-SA/Dx5 cells; [6]) | IC50 (MES-SA cells; [7]) | IC50 (MES-SA cells; [8]) | also measured
1 | 2-((4-Methylpiperazin-1-yl)methyl)phenol [Compound 72] | > 100 µM | > 100 µM |  |  |  |  |  | 
2 | Oc1c(C(c2ccccc2Br)N2CCCC2)ccc2cccnc12 (racemic) [Compound 88] | 6.6 ± 0.21 µM | 13 ± 1.35 µM | 1.98 |  |  |  |  | pIC50 value MES-SA/Dx5 (MES-SA/Dx5 cells): 5.18; SR_TQ (MES-SA/Dx5 cells; [3]): 1.55; pIC50 value MES-SA (MES-SA cells): 4.89
3 | Oc1c(C(c2ccc(C(F)(F)F)cc2)N2CCCC2)ccc2cccnc12 (racemic) [Compound 89] | 2.83 ± 0.61 µM | 11.1 ± 3.57 µM | 3.91 |  |  |  |  | pIC50 value MES-SA/Dx5 (MES-SA/Dx5 cells): 5.56; SR_TQ (MES-SA/Dx5 cells; [3]): 1.12; pIC50 value MES-SA (MES-SA cells): 4.98
4 | CC1CCN(C(c2ccccc2)c2ccc3cccnc3c2O)CC1 (racemic) [Compound 99] | 11.5 ± 1.75 µM | 8.77 ± 0.24 µM | 0.76 |  |  |  |  | pIC50 value MES-SA/Dx5 (MES-SA/Dx5 cells): 4.95; pIC50 value MES-SA (MES-SA cells): 5.06
5 | CC1CCN(C(c2cccs2)c2ccc3cccnc3c2O)CC1 (racemic) [Compound 101] | 16.6 ± 0.81 µM | 10.8 ± 0.18 µM | 0.65 |  |  |  |  | pIC50 value MES-SA/Dx5 (MES-SA/Dx5 cells): 4.78; pIC50 value MES-SA (MES-SA cells): 4.97
6 | OCCN1CCN(C(c2ccc(F)cc2)c2ccc3cccnc3c2O)CC1 (racemic) [Compound 120] | 29.1 ± 7.12 µM | 66.7 ± 4.56 µM | 2.29 |  |  |  |  | pIC50 value MES-SA/Dx5 (MES-SA/Dx5 cells): 4.55; SR_TQ (MES-SA/Dx5 cells; [3]): 1.55; pIC50 value MES-SA (MES-SA cells): 4.18
7 | Oc1cccc2cccnc12 [Compound 12, 8-hydroxyquinoline] |  |  |  |  |  |  |  | SR (MES-SA/Dx5 cells): 1.66; SR_TQ (MES-SA/Dx5 cells): 2.34; IC50 (MES-SA/Dx5 cells; Homo sapiens, MES-SA/Dx5, 72 h, read-out: IC50 / μM MES-SA/Dx5): 3.04 ± 0.35 µM; IC50 (MES-SA/Dx5 cells; Homo sapiens, MES-SA/Dx5, read-out: IC50 / μM MES-SA/Dx5 (values in parentheses)): 2.2 ± 0.18 µM; IC50 (MES-SA/Dx5 cells; Homo sapiens, MES-SA/Dx5, read-out: pIC50 value MES-SA/Dx5 (converted)): 3.02 µM; IC50 (MES-SA/Dx5 cells; Homo sapiens, MES-SA/Dx5, read-out: pIC50 value MES-SA/Dx5 + TQ (converted)): 2.19 µM; IC50 (MES-SA cells; Homo sapiens, MES-SA, 72 h, read-out: IC50 / μM MES-SA): 5.04 ± 0.51 µM; IC50 (MES-SA cells; Homo sapiens, MES-SA, read-out: IC50 / μM MES-SA (values in parentheses)): 5.13 ± 0.05 µM; IC50 (MES-SA cells; Homo sapiens, MES-SA, read-out: pIC50 value MES-SA (converted)): 5.01 µM; IC50 (MES-SA cells; Homo sapiens, MES-SA, read-out: pIC50 value MES-SA+TQ (converted)): 5.13 µM
8 | CCN(CC)Cc1ccc(O)c2ncccc12 [Compound 45] |  |  | 0.9 | 5.02 ± 0.26 µM | 5.01 µM | 4.5 ± 0.04 µM | 4.47 µM | 
9 | Oc1ccc(CN2CCCC2)c2cccnc12 [Compound 46] |  |  | 1.47 | 5.31 ± 0.52 µM | 5.25 µM | 7.81 ± 0.5 µM | 7.76 µM | 
10 | CCOC(=O)C1CCN(Cc2ccc(O)c3ncccc23)CC1 [Compound 48] |  |  | 1.31 | 3.54 ± 0.72 µM | 3.47 µM | 4.62 ± 1.03 µM | 4.47 µM | 
11 | Oc1ccc(CN2CCc3ccccc3C2)c2cccnc12 [Compound 50] |  |  | 0.99 | 17 ± 0.49 µM | 17 µM | 16.7 ± 1.5 µM | 16.6 µM | 
12 | Oc1ccc(CN2CCCCCC2)c2cccnc12 [Compound 52] |  |  | 1.23 | 5.84 ± 0.69 µM | 5.75 µM | 7.15 ± 0.27 µM | 7.08 µM | 
13 | Oc1ccc(CN2CCOCC2)c2cccnc12 [Compound 54] |  |  | 0.73 | 9.58 ± 0.33 µM | 9.55 µM | 6.99 ± 0.31 µM | 6.92 µM | 
14 | Oc1ccccc1CN1CCCCC1 [Compound 59] |  |  |  | > 100 µM |  | > 100 µM |  | 
15 | COc1ccc(O)c(CN2CCCCC2)c1 [Compound 60] |  |  |  | > 100 µM |  | > 100 µM |  | 
16 | O=Cc1ccc(O)c(CN2CCCCC2)c1 [Compound 61] |  |  |  | > 100 µM |  | > 100 µM |  | 
17 | CC(=O)c1ccc(O)c(CN2CCCCC2)c1 [Compound 62] |  |  |  | > 100 µM |  | > 100 µM |  | 
18 | COc1ccc(C(C)=O)cc1CN1CCCCC1 [Compound 63] |  |  |  | > 100 µM |  | > 100 µM |  | 
19 | Oc1ccc2ccncc2c1CN1CCCC(C(F)(F)F)C1 (stereo not shown) [Compound 64] |  |  |  | > 100 µM |  | > 100 µM |  | 
